Measured values taken from patent publication US10787452B2 (Vertex Pharmaceuticals Incorporated, priority 2012, dated 2020).

test system: HCT116 colorectal cancer cells; assay: Cisplatin sensitization assay (96 h cell viability MTS); type: cell-based; conditions: 96 h MTS, compound plus Cisplatin;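 further: compound concentration needed to lower the Cisplatin-alone IC50 by a set fold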
Method in brief: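 Simultaneous addition of compound and cisplatin (2-fold series, top 10 μM final, full matrix), followed by 96 h culture at 37° C/5% CO2 and a 1 h MTS viability read.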

| SMILES | Cisplatin Sensitization Assay |
| --- | --- |
| Nc1nn2cc(Cl)cnc2c1C(=O)Nc1cnccc1N1CCC(N2CCn3ccnc3C2)CC1 [I-N-102, 2-amino-6-chloro-N-(4-(4-(5,6-dihydroimidazo[1,2-a]pyrazin-7(8H)-yl)piperidin-1-yl)pyridin-3-yl)pyrazolo[1,5-a]pyrimidine-3-carboxamide] | ++ (Compounds with a Cisplatin sensitization value >0.02 μM but <0.2 μM are marked with “++.”) |
| Nc1nn2cc(Cl)cnc2c1C(=O)Nc1cnccc1N1CCC(N2CCOCC2)CC1 [I-N-104, 2-amino-6-chloro-N-(4-(4-morpholinopiperidin-1-yl)pyridin-3-yl)pyrazolo[1,5-a]pyrimidine-3-carboxamide] | +++ (Compounds with a Cisplatin sensitization value of <0.02 μM are marked with “+++.”) |
| Nc1nn2cc(Cl)cnc2c1C(=O)Nc1cnccc1N1CCC(N2CCCC2)CC1 [I-N-105, 2-amino-6-chloro-N-(4-(4-(pyrrolidin-1-yl)piperidin-1-yl)pyridin-3-yl)pyrazolo[1,5-a]pyrimidine-3-carboxamide] | +++ (Compounds with a Cisplatin sensitization value of <0.02 μM are marked with “+++.”) |
| CN(C)C1CCN(C2CCN(c3ccncc3NC(=O)c3c(N)nn4cc(Cl)cnc34)CC2)C1 (stereo not shown) [I-N-106, 2-amino-6-chloro-N-(4-(4-(3-(dimethylamino)pyrrolidin-1-yl)piperidin-1-yl)pyridin-3-yl)pyrazolo[1,5-a]pyrimidine-3-carboxamide] | +++ (Compounds with a Cisplatin sensitization value of <0.02 μM are marked with “+++.”) |
| COC1CN(C2CCN(c3ccncc3NC(=O)c3c(N)nn4cc(Cl)cnc34)CC2)C1 [I-N-107, 2-amino-6-chloro-N-(4-(4-(3-methoxyazetidin-1-yl)piperidin-1-yl)pyridin-3-yl)pyrazolo[1,5-a]pyrimidine-3-carboxamide] | +++ (Compounds with a Cisplatin sensitization value of <0.02 μM are marked with “+++.”) |
| Nc1nn2cc(Cl)cnc2c1C(=O)Nc1cnccc1N1CCC(N2CC(F)(F)C2)CC1 [I-N-108, 2-amino-6-chloro-N-(4-(4-(3,3-difluoroazetidin-1-yl)piperidin-1-yl)pyridin-3-yl)pyrazolo[1,5-a]pyrimidine-3-carboxamide] | +++ (Compounds with a Cisplatin sensitization value of <0.02 μM are marked with “+++.”) |
| Nc1nn2cc(Cl)cnc2c1C(=O)Nc1cnccc1N1CCC(N2CCC23COC3)CC1 [I-N-109, N-(4-(4-(6-oxa-1-azaspiro[3.3]heptan-1-yl)piperidin-1-yl)pyridin-3-yl)-2-amino-6-chloropyrazolo[1,5-a]pyrimidine-3-carboxamide] | +++ (Compounds with a Cisplatin sensitization value of <0.02 μM are marked with “+++.”) |
| CN1CCN(c2c(NC(=O)c3c(N)nn4cc(F)cnc34)cncc2C(F)F)CC1 [I-N-111, 2-amino-N-(5-(difluoromethyl)-4-(4-methylpiperazin-1-yl)pyridin-3-yl)-6-fluoropyrazolo[1,5-a]pyrimidine-3-carboxamide] | ++ (Compounds with a Cisplatin sensitization value >0.02 μM but <0.2 μM are marked with “++.”) |
| CN1CCN(c2c(C#N)cncc2NC(=O)c2c(N)nn3cc(F)cnc23)CC1 [I-N-113, 2-amino-N-(5-cyano-4-(4-methylpiperazin-1-yl)pyridin-3-yl)-6-fluoropyrazolo[1,5-a]pyrimidine-3-carboxamide] | + (Compounds with a Cisplatin sensitization value >0.2 μM but <5 μM are marked with “+.”) |
| Nc1nn2cc(F)cnc2c1C(=O)Nc1cnccc1N1CCN2CCOC[C@@H]2C1 [I-N-115, (S)-2-amino-6-fluoro-N-(4-(hexahydropyrazino[2,1-c][1,4]oxazin-8(1H)-yl)pyridin-3-yl)pyrazolo[1,5-a]pyrimidine-3-carboxamide] | +++ (Compounds with a Cisplatin sensitization value of <0.02 μM are marked with “+++.”) |
| Nc1nn2cc(F)cnc2c1C(=O)Nc1cnccc1N1CCN2CCOC[C@H]2C1 [I-N-116, (R)-2-amino-6-fluoro-N-(4-(hexahydropyrazino[2,1-c][1,4]oxazin-8(1H)-yl)pyridin-3-yl)pyrazolo[1,5-a]pyrimidine-3-carboxamide] | ++ (Compounds with a Cisplatin sensitization value >0.02 μM but <0.2 μM are marked with “++.”) |
| Nc1nn2cc(Cl)cnc2c1C(=O)Nc1cncc(F)c1N1CCN(C2COC2)CC1 [I-N-117, 2-amino-6-chloro-N-(5-fluoro-4-(4-(oxetan-3-yl)piperazin-1-yl)pyridin-3-yl)pyrazolo[1,5-a]pyrimidine-3-carboxamide] | +++ (Compounds with a Cisplatin sensitization value of <0.02 μM are marked with “+++.”) |
| Nc1nn2cc(F)cnc2c1C(=O)Nc1cncc(F)c1N1CCNCC1 [I-N-118, 2-amino-6-fluoro-N-(5-fluoro-4-(piperazin-1-yl)pyridin-3-yl)pyrazolo[1,5-a]pyrimidine-3-carboxamide] | +++ (Compounds with a Cisplatin sensitization value of <0.02 μM are marked with “+++.”) |
| Nc1nn2cc(F)cnc2c1C(=O)Nc1cncc(C2CC2)c1N1CCN([C@@H]2CCOC2)CC1 [I-N-119, (R)-2-amino-N-(5-cyclopropyl-4-(4-(tetrahydrofuran-3-yl)piperazin-1-yl)pyridin-3-yl)-6-fluoropyrazolo[1,5-a]pyrimidine-3-carboxamide] | ++ (Compounds with a Cisplatin sensitization value >0.02 μM but <0.2 μM are marked with “++.”) |
| Nc1nn2cc(F)cnc2c1C(=O)Nc1cncc(C2CC2)c1N1CCN([C@H]2CCOC2)CC1 [I-N-120, (S)-2-amino-N-(5-cyclopropyl-4-(4-(tetrahydrofuran-3-yl)piperazin-1-yl)pyridin-3-yl)-6-fluoropyrazolo[1,5-a]pyrimidine-3-carboxamide] | +++ (Compounds with a Cisplatin sensitization value of <0.02 μM are marked with “+++.”) |
| Nc1nn2cc(F)cnc2c1C(=O)Nc1cncc(F)c1N1CCN(C2CCOCC2)CC1 [I-N-121, 2-amino-6-fluoro-N-(5-fluoro-4-(4-(tetrahydro-2H-pyran-4-yl)piperazin-1-yl)pyridin-3-yl)pyrazolo[1,5-a]pyrimidine-3-carboxamide] | +++ (Compounds with a Cisplatin sensitization value of <0.02 μM are marked with “+++.”) |
| Nc1nn2cc(F)cnc2c1C(=O)Nc1cncc(F)c1N1CCN(C2CCOC2)CC1 (stereo not shown) [I-N-122, 2-amino-6-fluoro-N-(5-fluoro-4-(4-(tetrahydrofuran-3-yl)piperazin-1-yl)pyridin-3-yl)pyrazolo[1,5-a]pyrimidine-3-carboxamide] | ++ (Compounds with a Cisplatin sensitization value >0.02 μM but <0.2 μM are marked with “++.”) |
| Cc1cncc(NC(=O)c2c(N)nn3cc(F)cnc23)c1N1CCN(C2CCOCC2)CC1 [I-N-123, 2-amino-6-fluoro-N-(5-methyl-4-(4-(tetrahydro-2H-pyran-4-yl)piperazin-1-yl)pyridin-3-yl)pyrazolo[1,5-a]pyrimidine-3-carboxamide] | ++ (Compounds with a Cisplatin sensitization value >0.02 μM but <0.2 μM are marked with “++.”) |
| Nc1nn2cc(F)cnc2c1C(=O)Nc1cncc(Cl)c1N1CCN(C2CCOC2)CC1 (stereo not shown) [I-N-124, 2-amino-N-(5-chloro-4-(4-(tetrahydrofuran-3-yl)piperazin-1-yl)pyridin-3-yl)-6-fluoropyrazolo[1,5-a]pyrimidine-3-carboxamide] | +++ (Compounds with a Cisplatin sensitization value of <0.02 μM are marked with “+++.”) |
| Nc1nn2cc(F)cnc2c1C(=O)Nc1cncc(F)c1N1CCN([C@H]2CCOC2)CC1 [I-N-125, (S)-2-amino-6-fluoro-N-(5-fluoro-4-(4-(tetrahydrofuran-3-yl)piperazin-1-yl)pyridin-3-yl)pyrazolo[1,5-a]pyrimidine-3-carboxamide] | +++ (Compounds with a Cisplatin sensitization value of <0.02 μM are marked with “+++.”) |
| Nc1nn2cc(F)cnc2c1C(=O)Nc1cncc(Cl)c1N1CCNCC1 [I-N-126, 2-amino-N-(5-chloro-4-(piperazin-1-yl)pyridin-3-yl)-6-fluoropyrazolo[1,5-a]pyrimidine-3-carboxamide] | +++ (Compounds with a Cisplatin sensitization value of <0.02 μM are marked with “+++.”) |
| COCCN1CCN(c2c(F)cncc2NC(=O)c2c(N)nn3cc(F)cnc23)CC1 [I-N-127, 2-amino-6-fluoro-N-(5-fluoro-4-(4-(2-methoxyethyl)piperazin-1-yl)pyridin-3-yl)pyrazolo[1,5-a]pyrimidine-3-carboxamide] | +++ (Compounds with a Cisplatin sensitization value of <0.02 μM are marked with “+++.”) |
| CN1CCC(C(=O)N2CCN(c3c(F)cncc3NC(=O)c3c(N)nn4cc(F)cnc34)CC2)CC1 [I-N-128, 2-amino-6-fluoro-N-(5-fluoro-4-(4-(1-methylpiperidine-4-carbonyl)piperazin-1-yl)pyridin-3-yl)pyrazolo[1,5-a]pyrimidine-3-carboxamide] | +++ (Compounds with a Cisplatin sensitization value of <0.02 μM are marked with “+++.”) |
| Nc1nn2cc(F)cnc2c1C(=O)Nc1cncc(F)c1N1CCN(C(=O)C2CN3CCC2CC3)CC1 (stereo not shown) [I-N-130, 2-amino-6-fluoro-N-(5-fluoro-4-(4-(quinuclidine-3-carbonyl)piperazin-1-yl)pyridin-3-yl)pyrazolo[1,5-a]pyrimidine-3-carboxamide] | ++ (Compounds with a Cisplatin sensitization value >0.02 μM but <0.2 μM are marked with “++.”) |
| CN1CC[C@@H](OC2CCN(c3ccncc3NC(=O)c3c(N)nn4cc(F)cnc34)CC2)C1 [I-N-131] | +++ (Compounds with a Cisplatin sensitization value of <0.02 μM are marked with “+++.”) |
